Laboratory results taken from ChEMBL document CHEMBL4739711, “Method of inhibiting DYRK1B” (2020).
Blank lines part the entries; values can stand above or below the molecule they belong to. Activity calls are given as the source filed them. The calls are words filed in the database; no cut-off is given here.

What was measured:
PANC-1 [1] = assay: Inhibition of colony formation in human PANC-1 cells at 0.5 uM; type: functional, cell-based
PANC-1 [2] = assay: Toxicity in human PANC-1 cells assessed as effect on cell viability at 0.5 uM; type: cell-based; settings: panc-1, 0.5 µM
[3] = target: Dual specificity tyrosine-phosphorylation-regulated kinase 1B (Homo sapiens) (UniProt Q9Y463); assay: Inhibition of DYRK1B in SAG stimulated human Daoy cells assessed as prevention of Hedgehog signaling by measuring reduction of GLI expression at 1 to 5 uM by Western blot analysis; type: tissue-based; settings: dose 1-5 µM
[4] = target: T1, Zinc finger protein GLI1 (Homo sapiens) (UniProt P08151); assay: Inhibition of GLI in SAG stimulated human Daoy cells assessed as prevention of Hedgehog signaling by measuring reduction of GLI expression at 20 uM in presence of siRNA for SUFU by Western blot analysis; type: tissue-based
T1 sequence (whole entry): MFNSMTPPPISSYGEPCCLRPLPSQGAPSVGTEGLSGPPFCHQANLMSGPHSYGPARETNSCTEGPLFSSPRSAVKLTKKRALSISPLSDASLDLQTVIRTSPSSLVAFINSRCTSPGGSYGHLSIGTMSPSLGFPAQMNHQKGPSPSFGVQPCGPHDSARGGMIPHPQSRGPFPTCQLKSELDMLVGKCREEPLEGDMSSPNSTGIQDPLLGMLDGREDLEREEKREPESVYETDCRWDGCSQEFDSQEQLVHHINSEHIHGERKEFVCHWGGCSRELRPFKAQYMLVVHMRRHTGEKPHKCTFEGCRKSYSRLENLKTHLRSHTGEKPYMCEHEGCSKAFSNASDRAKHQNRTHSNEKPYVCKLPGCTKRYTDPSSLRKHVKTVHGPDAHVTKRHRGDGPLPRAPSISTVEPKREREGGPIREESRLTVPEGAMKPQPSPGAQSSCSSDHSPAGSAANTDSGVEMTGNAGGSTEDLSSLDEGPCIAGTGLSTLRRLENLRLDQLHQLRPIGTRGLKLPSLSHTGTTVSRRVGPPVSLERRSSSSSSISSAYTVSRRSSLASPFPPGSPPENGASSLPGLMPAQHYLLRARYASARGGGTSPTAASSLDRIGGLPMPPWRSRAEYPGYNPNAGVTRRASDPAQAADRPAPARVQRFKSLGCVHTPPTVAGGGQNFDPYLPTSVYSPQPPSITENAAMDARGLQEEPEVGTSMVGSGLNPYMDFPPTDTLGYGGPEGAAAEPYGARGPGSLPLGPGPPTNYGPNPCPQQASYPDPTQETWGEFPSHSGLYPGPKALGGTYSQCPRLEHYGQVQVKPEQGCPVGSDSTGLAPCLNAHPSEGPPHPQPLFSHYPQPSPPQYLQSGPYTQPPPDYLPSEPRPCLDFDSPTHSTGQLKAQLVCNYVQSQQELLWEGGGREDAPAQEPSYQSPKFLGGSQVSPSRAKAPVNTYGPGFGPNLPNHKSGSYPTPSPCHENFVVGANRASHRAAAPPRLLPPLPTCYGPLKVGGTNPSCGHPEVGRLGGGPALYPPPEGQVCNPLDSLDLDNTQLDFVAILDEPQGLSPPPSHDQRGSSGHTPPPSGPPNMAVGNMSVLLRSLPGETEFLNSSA

[5] = target: T1, Zinc finger protein GLI1 (Homo sapiens); assay: Inhibition of GLI in SAG stimulated human Daoy cells assessed as prevention of Hedgehog signaling by measuring reduction of PTCH1 expression at 20 uM in presence of siRNA for SUFU by Western blot analysis; type: tissue-based
[6] = target: Dual specificity tyrosine-phosphorylation-regulated kinase 1B (Homo sapiens) (UniProt Q9Y463); assay: Inhibition of DYRK1B in SAG stimulated human Daoy cells assessed as prevention of Hedgehog signaling by measuring reduction of GLI expression at 10 to 25 uM by Western blot analysis; type: tissue-based; settings: dose 10-25 µM
[7] = target: Dual specificity tyrosine-phosphorylation-regulated kinase 1B (Homo sapiens) (UniProt Q9Y463); assay: Inhibition of DYRK1B in SAG stimulated human Daoy cells assessed as prevention of Hedgehog signaling by measuring reduction of PTCH1 expression at 10 to 25 uM by Western blot analysis; type: tissue-based; settings: dose 10-25 µM
[8] = target: Protein smoothened (Mus musculus) (UniProt P56726); assay: Inhibition of SMO in SAG stimulated mouse BCC cells assessed as prevention of Hedgehog signaling by measuring reduction of GLI expression at 10 to 25 uM by Western blot analysis; type: cell-based; settings: dose 10-25 µM
[9] = target: Dual specificity tyrosine-phosphorylation-regulated kinase 1B (Homo sapiens) (UniProt Q9Y463); assay: Inhibition of DYRK1B in human A673 cells assessed as prevention of Hedgehog signaling by measuring reduction of GLI expression at 10 to 25 uM by Western blot analysis; type: cell-based; settings: dose 10-25 µM
[10] = target: Dual specificity tyrosine-phosphorylation-regulated kinase 1B (Homo sapiens) (UniProt Q9Y463); assay: Inhibition of DYRK1B in human PANC-1 cell assessed as prevention of Hedgehog signaling by measuring reduction of GLI expression at 10 to 25 uM by Western blot analysis; type: tissue-based; settings: dose 10-25 µM
PANC-1 [11] = assay: Inhibition of colony formation in human PANC-1 cells at 10 to 25 uM; type: functional, cell-based; settings: dose 10-25 µM
PANC-1 [12] = assay: Toxicity in human PANC-1 cells assessed as effect on cell viability at 10 to 25 uM; type: cell-based; settings: panc-1, 25 µM, dose 10-25 µM

Dual specificity tyrosine-phosphorylation-regulated kinase 1B (Homo sapiens), sequence (Q9Y463 whole entry, looked up): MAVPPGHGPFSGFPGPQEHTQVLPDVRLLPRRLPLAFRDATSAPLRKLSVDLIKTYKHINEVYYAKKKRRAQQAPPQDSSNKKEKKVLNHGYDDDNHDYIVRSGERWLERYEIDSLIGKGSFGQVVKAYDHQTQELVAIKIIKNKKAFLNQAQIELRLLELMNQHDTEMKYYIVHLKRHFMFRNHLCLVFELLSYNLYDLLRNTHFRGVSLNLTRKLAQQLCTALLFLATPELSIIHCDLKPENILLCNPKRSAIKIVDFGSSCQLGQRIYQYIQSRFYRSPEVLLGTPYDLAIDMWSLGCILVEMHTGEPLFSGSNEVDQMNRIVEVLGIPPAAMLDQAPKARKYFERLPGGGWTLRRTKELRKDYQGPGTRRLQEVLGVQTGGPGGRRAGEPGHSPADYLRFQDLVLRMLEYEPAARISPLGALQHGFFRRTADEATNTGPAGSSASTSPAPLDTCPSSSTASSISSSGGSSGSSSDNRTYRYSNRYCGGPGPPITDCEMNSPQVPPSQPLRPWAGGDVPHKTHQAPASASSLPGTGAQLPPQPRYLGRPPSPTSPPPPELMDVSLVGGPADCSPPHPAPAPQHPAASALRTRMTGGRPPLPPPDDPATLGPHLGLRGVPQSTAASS
Protein smoothened (Mus musculus), sequence (P56726 whole entry): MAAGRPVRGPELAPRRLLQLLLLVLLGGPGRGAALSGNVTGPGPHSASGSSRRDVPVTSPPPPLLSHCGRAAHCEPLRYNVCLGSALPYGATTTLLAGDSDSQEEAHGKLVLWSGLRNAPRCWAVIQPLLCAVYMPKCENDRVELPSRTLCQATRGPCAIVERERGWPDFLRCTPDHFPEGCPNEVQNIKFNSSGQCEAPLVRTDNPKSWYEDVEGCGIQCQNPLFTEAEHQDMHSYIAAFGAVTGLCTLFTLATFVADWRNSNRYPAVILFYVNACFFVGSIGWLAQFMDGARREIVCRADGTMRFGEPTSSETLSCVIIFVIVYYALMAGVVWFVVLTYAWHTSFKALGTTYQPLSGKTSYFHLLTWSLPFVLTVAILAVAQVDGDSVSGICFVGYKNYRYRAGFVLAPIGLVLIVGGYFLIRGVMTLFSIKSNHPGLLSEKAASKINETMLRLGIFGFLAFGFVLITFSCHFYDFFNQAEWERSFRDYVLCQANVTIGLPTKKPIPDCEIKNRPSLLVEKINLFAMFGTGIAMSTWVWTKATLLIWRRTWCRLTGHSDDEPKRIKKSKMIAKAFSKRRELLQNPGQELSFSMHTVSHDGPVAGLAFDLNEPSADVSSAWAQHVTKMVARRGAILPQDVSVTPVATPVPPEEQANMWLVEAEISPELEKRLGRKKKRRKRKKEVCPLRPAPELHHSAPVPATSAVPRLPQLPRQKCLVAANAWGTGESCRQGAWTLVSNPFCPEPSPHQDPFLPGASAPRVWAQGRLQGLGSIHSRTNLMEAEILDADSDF

SMILES: CS(=O)(=O)c1ccc(C(=O)Nc2ccc(Cl)c(-c3ccccn3)c2)c(Cl)c1 [VISMODEGIB]
inhibition (PANC-1 [1]): inactive
Activity (PANC-1 [2]): Non-Toxic

inhibition [3]: Active
SMILES: FC(F)(F)c1ccc2[nH]c(Nc3ncccn3)nc2c1

inhibition [4]: Active
inhibition [5]: Active
SMILES: CN(C)c1ccccc1CN1CCCN(Cc2ccccc2N(C)C)C1c1ccncc1

SMILES: COc1ccc2c(c1)[nH]c1c(C)nccc12 [HARMINE]
inhibition [6]: Active
inhibition [7]: Active
inhibition [8]: Active
inhibition [9]: Active
inhibition [10]: Active
inhibition (PANC-1 [11]): Active
Activity (PANC-1 [12]): Non-Toxic
